Data taken from ChEMBL document CHEMBL3400056, “Novel thiazolo[3,2-b]-1,2,4-triazoles derived from naproxen with analgesic/anti-inflammatory properties: Synthesis, biological evaluation and molecular modeling studies” (Bioorg Med Chem, 2015).

Each compound was assayed on Mus musculus (assay: Analgesic activity in Swiss albino mouse assessed as latancy of withdrawing tail at 50 mg/kg, po measured after 2 hrs by tail flick test relative to control). Details: not given.
Format: functional
`COc1ccc2cc(C(C)c3nc4s/c(=C\c5ccc(C)o5)c(=O)n4n3)ccc2c1` (stereo unspecified) gave an MPE of 38.1%.
With `COc1ccc2cc(C(C)c3nc4s/c(=C\c5ccc(-c6ccccc6)cc5)c(=O)n4n3)ccc2c1` (stereo unspecified) the MPE was 47.1%.
For `COc1ccc2cc(C(C)c3nc4s/c(=C\c5cc(Br)cs5)c(=O)n4n3)ccc2c1` (stereo unspecified), the MPE was 28.7%.
Compound `COc1ccc2cc(C(C)c3nc4s/c(=C\c5cn(C(C)=O)c6ccccc56)c(=O)n4n3)ccc2c1` (stereo unspecified) has an MPE of 30.8%.

These compounds were tested on Mus musculus (assay: Analgesic activity in Swiss albino mouse assessed as latancy of withdrawing tail at 100 mg/kg, po measured after 2 hrs by tail flick test relative to control). Details: not given.
Format: functional
`COc1ccc2cc(C(C)c3nc4s/c(=C\c5ccc(C)o5)c(=O)n4n3)ccc2c1` (stereo unspecified) was tested, and the MPE was 48.6%.
`COc1ccc2cc(C(C)c3nc4s/c(=C\c5ccc(-c6ccccc6)cc5)c(=O)n4n3)ccc2c1` (stereo unspecified) showed an MPE of 49.1%.
`COc1ccc2cc(C(C)c3nc4s/c(=C\c5cc(Br)cs5)c(=O)n4n3)ccc2c1` (stereo unspecified) showed an MPE of 19%.
With `COc1ccc2cc(C(C)c3nc4s/c(=C\c5cn(C(C)=O)c6ccccc56)c(=O)n4n3)ccc2c1` (stereo unspecified) the MPE was 28.3%.

Each compound was assayed on Mus musculus (assay: Analgesic activity in Swiss albino mouse assessed as time of licking paws at 50 mg/kg, po measured after 2 hrs by tail flick test relative to control). Details: not given.
Format: functional
`COc1ccc2cc(C(C)c3nc4s/c(=C\c5ccc(C)o5)c(=O)n4n3)ccc2c1` (stereo unspecified) was tested, and the MPE was 23.9%.
With `COc1ccc2cc(C(C)c3nc4s/c(=C\c5ccc(-c6ccccc6)cc5)c(=O)n4n3)ccc2c1` (stereo unspecified) the MPE was 42.1%.
In the case of `COc1ccc2cc(C(C)c3nc4s/c(=C\c5cc(Br)cs5)c(=O)n4n3)ccc2c1` (stereo unspecified), the MPE is reported as 20.1%.
With `COc1ccc2cc(C(C)c3nc4s/c(=C\c5cn(C(C)=O)c6ccccc56)c(=O)n4n3)ccc2c1` (stereo unspecified) the MPE was 17.5%.

The compounds below were run on Mus musculus (assay: Analgesic activity in Swiss albino mouse assessed as time of licking paws at 100 mg/kg, po measured after 2 hrs by tail flick test relative to control). Details: not given.
Format: functional
In the case of `COc1ccc2cc(C(C)c3nc4s/c(=C\c5ccc(C)o5)c(=O)n4n3)ccc2c1` (stereo unspecified), the MPE is reported as 35.3%.
Compound `COc1ccc2cc(C(C)c3nc4s/c(=C\c5ccc(-c6ccccc6)cc5)c(=O)n4n3)ccc2c1` (stereo unspecified) has an MPE of 39.8%.
Work on `COc1ccc2cc(C(C)c3nc4s/c(=C\c5cc(Br)cs5)c(=O)n4n3)ccc2c1` (stereo unspecified) yielded an MPE of 21.2%.
`COc1ccc2cc(C(C)c3nc4s/c(=C\c5cn(C(C)=O)c6ccccc56)c(=O)n4n3)ccc2c1` (stereo unspecified) gave an MPE of 18.7%.

Each compound was assayed on Mus musculus (assay: Antiinflammatory activity in Swiss albino mouse assessed as inhibition of carrageenan-induced paw edema at 50 mg/kg, po administered 1 hr prior to carrageenan challenge measured after 2 hrs relative to control). Details: not given.
Format: functional
Parameters: scale not given: the % may be the effect or the level left
`COc1ccc2cc(C(C)c3nc4s/c(=C\c5ccc(C)o5)c(=O)n4n3)ccc2c1` (stereo unspecified) showed an Activity of 41%.
With `COc1ccc2cc(C(C)c3nc4s/c(=C\c5ccc(-c6ccccc6)cc5)c(=O)n4n3)ccc2c1` (stereo unspecified) the Activity was 45.3%.
Compound `COc1ccc2cc(C(C)c3nc4s/c(=C\c5cc(Br)cs5)c(=O)n4n3)ccc2c1` (stereo unspecified) has an Activity of 43%.
`COc1ccc2cc(C(C)c3nc4s/c(=C\c5cn(C(C)=O)c6ccccc56)c(=O)n4n3)ccc2c1` (stereo unspecified) was tested, and the Activity was 37.7%.

The compounds below were run on Mus musculus (assay: Antiinflammatory activity in Swiss albino mouse assessed as inhibition of carrageenan-induced paw edema at 100 mg/kg, po administered 1 hr prior to carrageenan challenge measured after 2 hrs relative to control). Details: not given.
Format: functional
Parameters: scale not given: the % may be the effect or the level left
With `COc1ccc2cc(C(C)c3nc4s/c(=C\c5ccc(C)o5)c(=O)n4n3)ccc2c1` (stereo unspecified) the Activity was 37%.
For `COc1ccc2cc(C(C)c3nc4s/c(=C\c5ccc(-c6ccccc6)cc5)c(=O)n4n3)ccc2c1` (stereo unspecified), the Activity was 40.9%.
With `COc1ccc2cc(C(C)c3nc4s/c(=C\c5cc(Br)cs5)c(=O)n4n3)ccc2c1` (stereo unspecified) the Activity was 32.3%.
In the case of `COc1ccc2cc(C(C)c3nc4s/c(=C\c5cn(C(C)=O)c6ccccc56)c(=O)n4n3)ccc2c1` (stereo unspecified), the Activity is reported as 43.3%.

What follows are compounds tested against T1, Prostaglandin G/H synthase 1 (Ovis aries, UniProt P05979) (assay: Inhibition of ovine recombinant COX-1 using […] as substrate incubated for 10 mins prior to arachidonic acid addition measured after 2 mins by EIA). Details: not given.
T1 sequence (P05979 whole entry): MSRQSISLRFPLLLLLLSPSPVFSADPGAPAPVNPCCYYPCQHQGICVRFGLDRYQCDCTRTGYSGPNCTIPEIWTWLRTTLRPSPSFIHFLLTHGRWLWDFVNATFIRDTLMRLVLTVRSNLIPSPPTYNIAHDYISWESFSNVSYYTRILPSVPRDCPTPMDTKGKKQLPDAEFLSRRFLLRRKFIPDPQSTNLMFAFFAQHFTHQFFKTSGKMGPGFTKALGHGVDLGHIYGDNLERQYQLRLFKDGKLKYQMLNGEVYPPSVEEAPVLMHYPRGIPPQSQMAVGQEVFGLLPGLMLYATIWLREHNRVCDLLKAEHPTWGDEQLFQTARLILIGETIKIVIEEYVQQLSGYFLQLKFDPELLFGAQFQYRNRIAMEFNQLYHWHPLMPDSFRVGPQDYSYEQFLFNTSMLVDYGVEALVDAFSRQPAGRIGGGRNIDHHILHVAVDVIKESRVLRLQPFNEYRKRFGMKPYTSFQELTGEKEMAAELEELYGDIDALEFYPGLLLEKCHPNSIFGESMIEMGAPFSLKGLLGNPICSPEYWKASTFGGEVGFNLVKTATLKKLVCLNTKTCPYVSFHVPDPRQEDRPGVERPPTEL
With `COc1ccc2cc(C(C)c3nc4s/c(=C\c5ccc(-c6ccccc6)cc5)c(=O)n4n3)ccc2c1` (stereo unspecified) the IC50 was greater than 100 µM.

What follows are compounds tested against T2, Prostaglandin G/H synthase 2 (Homo sapiens, UniProt P35354) (assay: Inhibition of human recombinant COX-2 using […] as substrate incubated for 10 mins prior to arachidonic acid addition measured after 2 mins by EIA). Details: not given.
T2 sequence (P35354 whole entry): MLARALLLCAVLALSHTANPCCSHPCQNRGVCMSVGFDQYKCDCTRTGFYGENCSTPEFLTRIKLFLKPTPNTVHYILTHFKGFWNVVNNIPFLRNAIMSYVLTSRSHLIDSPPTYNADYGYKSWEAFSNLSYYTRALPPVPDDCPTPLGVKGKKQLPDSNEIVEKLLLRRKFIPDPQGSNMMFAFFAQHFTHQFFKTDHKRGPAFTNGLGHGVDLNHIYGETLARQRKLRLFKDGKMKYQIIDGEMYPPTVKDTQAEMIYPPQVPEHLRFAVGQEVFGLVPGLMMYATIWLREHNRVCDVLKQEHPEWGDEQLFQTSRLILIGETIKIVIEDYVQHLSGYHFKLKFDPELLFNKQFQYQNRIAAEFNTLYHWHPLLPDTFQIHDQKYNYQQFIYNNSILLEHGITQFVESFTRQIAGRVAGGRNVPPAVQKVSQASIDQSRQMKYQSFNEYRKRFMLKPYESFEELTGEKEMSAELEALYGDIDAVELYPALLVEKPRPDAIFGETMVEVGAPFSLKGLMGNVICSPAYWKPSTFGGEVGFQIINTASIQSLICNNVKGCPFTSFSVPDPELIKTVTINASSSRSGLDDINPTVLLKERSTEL
For `COc1ccc2cc(C(C)c3nc4s/c(=C\c5ccc(-c6ccccc6)cc5)c(=O)n4n3)ccc2c1` (stereo unspecified), the IC50 was greater than 100 µM.

Each compound was assayed on Mus musculus (assay: Gastrointestinal toxicity in Swiss albino mouse assessed as ulcer index at 50 mg/kg, po measured after 2 hrs). Details: in vivo.
Format: organism-based
Parameters: dose 50 mg/kg, route oral
In the case of `COc1ccc2cc(C(C)c3nc4s/c(=C\c5ccc(C)o5)c(=O)n4n3)ccc2c1` (stereo unspecified), the UI is reported as 1.3.
With `COc1ccc2cc(C(C)c3nc4s/c(=C\c5ccc(-c6ccccc6)cc5)c(=O)n4n3)ccc2c1` (stereo unspecified) the UI was 1.3.
In the case of `COc1ccc2cc(C(C)c3nc4s/c(=C\c5cc(Br)cs5)c(=O)n4n3)ccc2c1` (stereo unspecified), the UI is reported as 2.9.
`COc1ccc2cc(C(C)c3nc4s/c(=C\c5cn(C(C)=O)c6ccccc56)c(=O)n4n3)ccc2c1` (stereo unspecified) was tested, and the UI was 2.7.

Each compound was assayed on Mus musculus (assay: Gastrointestinal toxicity in Swiss albino mouse assessed as ulcer index at 100 mg/kg, po measured after 2 hrs). Details: in vivo.
Format: organism-based
Parameters: dose 100 mg/kg, route oral
`COc1ccc2cc(C(C)c3nc4s/c(=C\c5ccc(C)o5)c(=O)n4n3)ccc2c1` (stereo unspecified) gave a UI of 2.7.
`COc1ccc2cc(C(C)c3nc4s/c(=C\c5ccc(-c6ccccc6)cc5)c(=O)n4n3)ccc2c1` (stereo unspecified) gave a UI of 2.6.
`COc1ccc2cc(C(C)c3nc4s/c(=C\c5cc(Br)cs5)c(=O)n4n3)ccc2c1` (stereo unspecified) gave a UI of 2.9.
For `COc1ccc2cc(C(C)c3nc4s/c(=C\c5cn(C(C)=O)c6ccccc56)c(=O)n4n3)ccc2c1` (stereo unspecified), the UI was 2.4.

The compounds below were run on Mus musculus (assay: Acute toxicity in Swiss albino mouse assessed as mortality at 50 to 100 mg/kg, po measured after 6 hrs to 14 days). Details: in vivo.
Format: organism-based
Parameters: dose 50-100 mg/kg, route oral
For `COc1ccc2cc(C(C)c3nc4s/c(=C\c5ccc(C)o5)c(=O)n4n3)ccc2c1` (stereo unspecified), the Activity was “Non-toxic”.
`COc1ccc2cc(C(C)c3nc4s/c(=C\c5ccc(-c6ccccc6)cc5)c(=O)n4n3)ccc2c1` (stereo unspecified) was tested, and the Activity was “Non-toxic”.
For `COc1ccc2cc(C(C)c3nc4s/c(=C\c5cc(Br)cs5)c(=O)n4n3)ccc2c1` (stereo unspecified), the Activity was “Non-toxic”.
`COc1ccc2cc(C(C)c3nc4s/c(=C\c5cn(C(C)=O)c6ccccc56)c(=O)n4n3)ccc2c1` (stereo unspecified) was tested, and the Activity was “Non-toxic”.

Each compound was assayed on Mus musculus (assay: Acute toxicity in Swiss albino mouse assessed as weight loss at 50 to 100 mg/kg, po measured up to 14 days). Details: in vivo, 336 h.
Format: organism-based
Parameters: dose 50-100 mg/kg, route oral
For `COc1ccc2cc(C(C)c3nc4s/c(=C\c5ccc(C)o5)c(=O)n4n3)ccc2c1` (stereo unspecified), the Activity was “Non-toxic”.
`COc1ccc2cc(C(C)c3nc4s/c(=C\c5ccc(-c6ccccc6)cc5)c(=O)n4n3)ccc2c1` (stereo unspecified) was tested, and the Activity was “Non-toxic”.
In the case of `COc1ccc2cc(C(C)c3nc4s/c(=C\c5cc(Br)cs5)c(=O)n4n3)ccc2c1` (stereo unspecified), the Activity is reported as “Non-toxic”.
`COc1ccc2cc(C(C)c3nc4s/c(=C\c5cn(C(C)=O)c6ccccc56)c(=O)n4n3)ccc2c1` (stereo unspecified) was tested, and the Activity was “Non-toxic”.

Each compound was assayed on Mus musculus (assay: Acute toxicity in Swiss albino mouse assessed as behavioral changes at 50 to 100 mg/kg, po measured up to 14 days). Details: in vivo, 336 h.
Format: organism-based
Parameters: dose 50-100 mg/kg, route oral
For `COc1ccc2cc(C(C)c3nc4s/c(=C\c5ccc(C)o5)c(=O)n4n3)ccc2c1` (stereo unspecified), the Activity was “Non-toxic”.
`COc1ccc2cc(C(C)c3nc4s/c(=C\c5ccc(-c6ccccc6)cc5)c(=O)n4n3)ccc2c1` (stereo unspecified) was tested, and the Activity was “Non-toxic”.
For `COc1ccc2cc(C(C)c3nc4s/c(=C\c5cc(Br)cs5)c(=O)n4n3)ccc2c1` (stereo unspecified), the Activity was “Non-toxic”.
For `COc1ccc2cc(C(C)c3nc4s/c(=C\c5cn(C(C)=O)c6ccccc56)c(=O)n4n3)ccc2c1` (stereo unspecified), the Activity was “Non-toxic”.
